# Laboratory results reported in patent US12496332B2 (priority 2019, dated 2025).
# Legend:
# [1] = tested on: A549 cells infected with influenza A virus; assay type: cell-based, human; conditions: for decrease of the SOD1 protein during viral infection: A549 cells treated in vitro with inhibitor of autophagy or endoplasmic reticulum stress
# influenza virus [2] = tested on: influenza virus; parameters: species or system mice (C57BL/6N or BALB/c); conditions: mouse, in vivo
# influenza virus [3] = assay type: in vivo, mice
compound,measurement,setting,value
"Cn1cnc(N)c2ncnc1-2 [3-MA, 3-methyladenine]",LC3 conversion,[1],decreased
same,amount of SOD1 protein,[1],increase
same,expression of viral protein PB1,[1],decreased expression
same,decrease of the SOD1 protein during viral infection,[1],reduced significantly
"O=C(O)CCCc1ccccc1 [4-PBA, 4-phenylbutyrate]",production of ROS compared to non-administration group,influenza virus [2],decreased significantly
same,decrease of the SOD1 protein during viral infection,[1],reduced significantly
"CC(=O)N[C@@H](CS)C(=O)O [NAC, N-acetylcysteine]",body weight (survivability),"influenza virus [3]; […], SOD1 50 units/mouse, NAC 1 mg/mouse, 4-PBA 2.5 mg/mouse, catalase 50 units/mouse",significant difference in body weight
CCN(CC)CCCC(C)Nc1ccnc2cc(Cl)ccc12 (stereo not drawn) [chloroquine],amount of SOD1 protein,[1],more distinct than that of 3-MA
same,decrease of the SOD1 protein during viral infection,[1],reduced significantly
"SOD1: superoxide dismutase 1, ROS scavenger; human SOD1 gene expressed in bacteria from pET-SOD1",amount of ROS in the bronchoalveolar lavage fluid,influenza virus [2],decreased
same,amount of SOD1 in lung tissue,influenza virus [2],recovered to a level close to that before the infection
same,body weight decrease,"influenza virus [3]; mouse, in vivo",slightly inhibited
